Results as given in patent US20240217982A1, “KRAS INHIBITORS” (Bristol-Myers Squibb Company, priority 2021, published 2024).

Legend:
KRAS G12D [1] = target: T1, KRAS G12D (Homo sapiens (Human), UniProt P01116, G12D); experiment: KRAS G12D Nucleotide Exchange Assay (HTRF); format: biochemical; settings: recombinant GDP-loaded KRAS G12D (20 nM), BIODIPY-labeled GDP (400 nM), recombinant SOS (10 nM), HTRF signal
Experimental: Recombinant GDP-loaded KRAS G12D (20 nM) was treated with compound at room temperature for 20 minutes in assay buffer (10 mM Hepes pH 7.4, 150 mM NaCl, 5 mM MgCl2, 0.0025% Igepal-CA630, 0.05% BSA, 1 mM DTT, 0.5 nM SA-Tb). BIODIPY-labeled GDP (400 nM) and recombinant SOS (10 nM) were added, and the reaction was incubated for 30 minutes.

KRAS G12D [2] = target: T1, KRAS G12D; experiment: KRAS G12D RAF Disruption Assay (HTRF); format: biochemical; settings: recombinant GMPPNP-loaded KRAS G12D (5 nM), GST-RAF1 RBD (9 nM), HTRF signal
Experimental: Recombinant GMPPNP-loaded KRAS G12D (5 nM) was treated with compound at room temperature for 20 minutes in assay buffer (50 mM Tris pH 7.5, 100 mM NaCl, 1 mM MgCl2, 1 mM DTT, 100 ug/mL BSA).

T1 sequence (P01116-2 other isoform, or with tags, fused parts or gaps G12D): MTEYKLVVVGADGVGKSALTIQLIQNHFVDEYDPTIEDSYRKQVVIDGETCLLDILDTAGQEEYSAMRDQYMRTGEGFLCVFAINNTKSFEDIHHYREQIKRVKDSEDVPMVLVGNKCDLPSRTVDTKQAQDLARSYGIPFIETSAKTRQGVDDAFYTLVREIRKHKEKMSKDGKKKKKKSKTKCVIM

Row | SMILES | KRASG12D Nucleotide Exchange Assay (IC50, µM) (KRAS G12D [1]) | KRASG12D RAF Disruption Assay (IC50, µM) (KRAS G12D [2])
1 | CCc1cccc2cc(O)cc(-c3c(Cl)cc4c(N5CC[C@H]6CC[C@@H](C5)N6)nc(OC[C@@]56CCCN5C[C@H](F)C6)nc4c3F)c12 (single isomer, unassigned) [Example 8-1] | 0.04 µM | 5.7 µM
2 | CCc1cccc2cc(O)cc(-c3c(Cl)cc4c(N5CC[C@H]6CC[C@@H](C5)N6)nc(OC[C@@]56CCCN5C[C@H](F)C6)nc4c3F)c12 (single isomer, unassigned) [Example 8-2] | 1.3 µM | 19.6 µM
3 | CCc1cccc2cc(O)cc(-c3c(Cl)cc4c(N5CC[C@H]6CC[C@@H](C5)N6)nc(OC[C@]56CCCN5C[C@@H](F)C6)nc4c3F)c12 (single isomer, unassigned) [Example 8-3] | 0.07 µM | 17.3 µM
4 | CCc1cccc2cc(O)cc(-c3c(Cl)cc4c(N5CC[C@H]6CC[C@@H](C5)N6)nc(OC[C@]56CCCN5C[C@@H](F)C6)nc4c3F)c12 (single isomer, unassigned) [Example 8-4] | 7.7 µM | 37.8 µM
5 | Oc1cc(-c2c(Cl)cc3c(N4CC[C@H]5CC[C@@H](C4)N5)nc(OC[C@@]45CCCN4C[C@H](F)C5)nc3c2F)c2c(F)cccc2c1 (single isomer, unassigned) [Example 8-5] |  | 0.07 µM
6 | Oc1cc(-c2c(Cl)cc3c(N4CC[C@H]5CC[C@@H](C4)N5)nc(OC[C@@]45CCCN4C[C@H](F)C5)nc3c2F)c2c(F)cccc2c1 (single isomer, unassigned) [Example 8-6] | 0.07 µM | 3.6 µM
7 | Oc1cc(-c2c(Cl)cc3c(N4CC[C@H]5CC[C@@H](C4)N5)nc(OC[C@@]45CCCN4C[C@H](F)C5)nc3c2F)c2ccccc2c1 (single isomer, unassigned) [Example 8-7] | 0.006 µM | 0.51 µM
8 | Oc1cc(-c2c(Cl)cc3c(N4CC[C@H]5CC[C@@H](C4)N5)nc(OC[C@@]45CCCN4C[C@H](F)C5)nc3c2F)c2ccccc2c1 (single isomer, unassigned) [Example 8-8] | 0.3 µM | 15.5 µM
9 | Oc1cc(-c2c(Cl)cc3c(N4CC[C@H]5CC[C@@H](C4)N5)nc(OC[C@]45CCCN4C[C@@H](F)C5)nc3c2F)c2ccccc2c1 (single isomer, unassigned) [Example 8-9] | 0.005 µM | 0.7 µM
10 | Oc1cc(-c2c(Cl)cc3c(N4CC[C@H]5CC[C@@H](C4)N5)nc(OC[C@]45CCCN4C[C@@H](F)C5)nc3c2F)c2ccccc2c1 (single isomer, unassigned) [Example 8-10] | 0.50 µM | 14.2 µM
11 | Cc1cc(N)nc(-c2c(Cl)cc3c(N4CC[C@H]5CC[C@@H](C4)N5)nc(OC[C@@]45CCCN4C[C@@H](OC(F)F)C5)nc3c2F)c1C(F)(F)F (single isomer, unassigned) [Example 10-5] | 0.9 µM | 81 µM
12 | Cc1cc(N)nc(-c2c(Cl)cc3c(N4CC[C@H]5CC[C@@H](C4)N5)nc(OC[C@@]45CCCN4C[C@@H](OC(F)F)C5)nc3c2F)c1C(F)(F)F (single isomer, unassigned) [Example 10-6] | 0.2 µM | >100 µM
13 | CN1CCC[C@H]1COc1nc(N2C3CCNCC2CC3)c2cc(Cl)c(-c3cc(O)cc4ccccc34)c(F)c2n1 (stereo partly drawn) [Example 1-1, 4-(6-chloro-4-{3,9-diazabicyclo[4.2.1]nonan-9-yl}-8-fluoro-2-{[(2S)-1-methylpyrrolidin-2-yl]methoxy}quinazolin-7-yl)naphthalen-2-ol] | 33.33 µM | 41.99 µM
14 | CN1CCC[C@H]1COc1nc(N2CCN3CCC2CC3)c2cc(Cl)c(-c3cc(O)cc4ccccc34)c(F)c2n1 [Example 1-2, 4-(6-chloro-4-{1,4-diazabicyclo[3.2.2]nonan-4-yl}-8-fluoro-2-{[(2S)-1-methylpyrrolidin-2-yl]methoxy}quinazolin-7-yl)naphthalen-2-ol] | 13.66 µM | >100 µM
15 | Cc1cc(N)nc(-c2c(Cl)cc3c(N4CCC5CCC(C4)N5)nc(OC[C@@H]4CCCN4C)nc3c2F)c1C(F)(F)F (stereo partly drawn) [Example 2-1, 6-(6-chloro-4-{3,9-diazabicyclo[4.2.1]nonan-3-yl}-8-fluoro-2-{[(2S)-1-methylpyrrolidin-2-yl]methoxy}quinazolin-7-yl)-4-methyl-5-(trifluoromethyl)pyridin-2-amine] | 0.04 µM | 6.19 µM
16 | Cc1cc(N)nc(-c2c(Cl)cc3c(N4CC5CCC(C4)NC5)nc(OC[C@@H]4CCCN4C)nc3c2F)c1C(F)(F)F (stereo partly drawn) [Example 2-2, 6-(6-chloro-4-{3,6-diazabicyclo[3.2.2]nonan-3-yl}-8-fluoro-2-{[(2S)-1-methylpyrrolidin-2-yl]methoxy}quinazolin-7-yl)-4-methyl-5-(trifluoromethyl)pyridin-2-amine] | 0.14 µM | 10.88 µM
17 | Cc1cc(N)nc(-c2c(Cl)cc3c(N4CC[C@H]5CC[C@@H](C4)N5)nc(OC[C@]45CCC[C@H]4N(C)CCC5)nc3c2F)c1C(F)(F)F [Example 3, 6-(2-{[(4aS,7aR)-1-methyl-octahydro-1H-cyclopenta[b]pyridin-4a-yl]methoxy}-6-chloro-4-[(1S,6R)-3,9-diazabicyclo[4.2.1]nonan-3-yl]-8-fluoroquinazolin-7-yl)-4-methyl-5-(trifluoromethyl)pyridin-2-amine] | <0.002 µM | 0.05 µM
18 | Cc1cc(N)nc(-c2c(Cl)cc3c(N4CC[C@H]5CC[C@@H](C4)N5)nc(OC[C@@]45CCCN4C[C@H](F)C5)nc3c2F)c1C(F)(F)F [Example 4-1, 6-(2-{[(2R,7aS)-2-fluoro-hexahydro-1H-pyrrolizin-7a-yl]methoxy}-6-chloro-4-[(1S,6R)-3,9-diazabicyclo[4.2.1]nonan-3-yl]-8-fluoroquinazolin-7-yl)-4-methyl-5-(trifluoromethyl)pyridin-2-amine] | 0.005 µM | 0.06 µM
19 | Cc1cc(N)nc(-c2c(Cl)cc3c(N4CC[C@H]5CC[C@@H](C4)N5)nc(OC[C@]45CCCN4C[C@@H](F)C5)nc3c2F)c1C(F)(F)F [Example 4-2, 6-(2-{[(2S,7aR)-2-fluoro-hexahydro-1H-pyrrolizin-7a-yl]methoxy}-6-chloro-4-[(1S,6R)-3,9-diazabicyclo[4.2.1]nonan-3-yl]-8-fluoroquinazolin-7-yl)-4-methyl-5-(trifluoromethyl)pyridin-2-amine] | 0.006 µM | 0.43 µM
20 | Cc1cc(N)nc(-c2c(Cl)cc3c(N4CC[C@H]5CC[C@@H](C4)N5)nc(OC[C@]45CCCN4C[C@H](F)C5)nc3c2F)c1C(F)(F)F [Example 4-3, 6-(2-{[(2R,7aR)-2-fluoro-hexahydro-1H-pyrrolizin-7a-yl]methoxy}-6-chloro-4-[(1S,6R)-3,9-diazabicyclo[4.2.1]nonan-3-yl]-8-fluoroquinazolin-7-yl)-4-methyl-5-(trifluoromethyl)pyridin-2-amine] | 0.02 µM | 0.52 µM
21 | CO[C@@H]1C[C@@H](COc2nc(N3CC[C@H]4CC[C@@H](C3)N4)c3cc(Cl)c(-c4nc(N)cc(C)c4C(F)(F)F)c(F)c3n2)N(C)C1 [Example 4-4, 6-{6-chloro-4-[(1S,6R)-3,9-diazabicyclo[4.2.1]nonan-3-yl]-8-fluoro-2-{[(2S,4R)-4-methoxy-1-methylpyrrolidin-2-yl]methoxy}quinazolin-7-yl}-4-methyl-5-(trifluoromethyl)pyridin-2-amine] | 0.010 µM | 1.81 µM
22 | Cc1cc(N)nc(-c2c(Cl)cc3c(N4CC[C@H]5CC[C@@H](C4)N5)nc(OC[C@@]45CCCN4C[C@@H](F)C5)nc3c2F)c1C(F)(F)F [Example 5, 6-(2-{[(2S,7aS)-2-fluoro-hexahydro-1H-pyrrolizin-7a-yl]methoxy}-6-chloro-4-[(1S,6R)-3,9-diazabicyclo[4.2.1]nonan-3-yl]-8-fluoroquinazolin-7-yl)-4-methyl-5-(trifluoromethyl)pyridin-2-amine] | <0.002 µM | 2.87 µM
